Test results as given in patent publication US20130102629A1, “ANALOGUES FOR THE TREATMENT OR PREVENTION OF FLAVIVIRUS INFECTIONS” (VERTEX PHARMACEUTICALS INCORPORATED, priority 2010, published 2013).

Tests used:
[1] = tested on: HCV (1b) replicon, Huh-ET cells; test: Cell-based luciferase reporter HCV (1b) RNA replication assay; settings: Hepatitis C virus; for EC50: HCV genotype 1b replicon, read-out: EC50_1b; for IC50: sub-genomic replicon 1b cell line
Source text: Cell-Based Luciferase Reporter HCV (Ib) RNA Replication Assay Cell Culture
Replicon cell lines Huh-5.2 are derived from the Huh-7 hepatocarcinoma cell line are maintained in culture as generally described in Krieger, N; Lohmann, V; Bartenschlager, R. Enhancement of hepatitis C virus RNA replication by cell culture-adaptive mutations. J. Virol. 2001, 75, 4614-4624. The Huh-5.2 cells contain the highly cell culture-adapted replicon I389luc-ubi-neo/NS3-3′/5.1 construct that carries, in addition to the neomycin gene, an integrated copy to the firefly luciferase gene (Krieger, N; Lohmann, V; Bartenschlager, R. Enhancement of hepatitis C virus RNA replication by cell culture-adaptive mutations. J. Virol. 2001, 75, 4614-4624). This cell line allows measurement of HCV RNA replication and translation by measuring luciferase activity. It has been previously shown that the luciferase activity tightly follows the replicon RNA level in these cells (Krieger, N; Lohmann, V; Bartenschlager, R. Enhancement of hepatitis C virus RNA replication by cell culture-adaptive mutations. J. Virol. 2001, 75, 4614-4624). The Huh-ET cell line has the same features as those mentioned for Huh-5.2 cell line, except that ET cells are more robust and contain an adaptative mutation in the HCV NS4B gene instead of NS5A. Both cell lines are maintained in cultures at a sub-confluent level (<85%) as the level of replicon RNA is highest in actively proliferating cells. The culture media used for cell passaging consist of DMEM (Gibco BRL Laboratories, Mississauga, ON, Canada) supplemented with 10% foetal bovine serum with 1% penicilin/streptomycin, 1% glutamine, 1% sodium pyruvate, 1% non-essential amino acids, and 180 μg/ml of G418 final concentration. Cells are incubated at 37° C., in an atmosphere of 5% CO2 and passaged twice a week to maintain sub-confluence.
Approximately 3000 viable Huh-ET cells (100 μl) are plated per well in a white opaque 96-well microtiter plate. The cell culture media used for the assay is the same as described above except that it contains no G418 and no phenol red. After an incubation period of 3-4 hours at 37° C. in a 5% CO2 incubator, compounds (100 μl) are added at various concentrations. Cells are then further incubated for 4 days at 37° C. in a 5% CO2 incubator. Thereafter, the culture media is removed and cells are lysed by the addition of 95 μL of the luciferase buffer (luciferin substrate in buffered detergent). Cell lysates are incubated at room temperature and protected from direct light for at least 10 minutes. Plates are read for luciferase counts using a luminometer (Wallac MicroBeta Trilux, Perkin Elmer™, MA, USA).
Curves are fitted to data points using nonlinear regression analysis, and IC50s are interpolated from the resulting curve using GraphPad Prism software, version 2.0 (GraphPad Software Inc., San Diego, Calif., USA).

[2] = tested on: sub-genomic HCV replicon of genotype 1a (cell line W11.8); test: Activity determination using the ELISA and the sub-genomic replicon 1a cell line; format: cell-based; settings: Hepatitis C virus
Source text: Activity Determination Using the ELISA and the Sub-Genomic Replicon 1a Cell Line
The cell line W11.8 containing the sub-genomic HCV replicon of genotype 1a is used to determine the potency of the drugs. The RNA replication in presence of different drug concentrations is indirectly measured in this cell line by the level of NS5A protein content upon drug treatment for four days. It is shown that the level of the NS5A protein correlates well with the level of HCV RNA in the replicon cell line. Cells are split twice a week in order to keep the confluence state below 85% of the culture flask surface area. The culture media used for cell passaging consists of DMEM-10% foetal bovine serum with 100 UI/mL penicillin, 100 μg/mL streptomycin, 2 mM glutamine, 1 mM sodium pyruvate, non-essential amino acids (1×) and 600 μg/mL of G418 final concentrations. Monolayer of the W11.8 cells is trypsinized and cells are counted. […] Then, substrate solution (100 μl, SuperSignal ELISA Pico Chemiluminescent Substrate, Fisher Cat. No. 37069) is added in each well and plates are incubated 60 minutes at room temperature prior to reading the luminescence (relative light units) on the Analyst HT plate reader. The percentage of inhibition at each drug concentration tested (in duplicate) is calculated.

Structure (SMILES) | EC50 [1] | IC50 [1] | IC50 [2]
COC(=O)N[C@H](C(=O)N1[C@@H](C)CC[C@H]1c1nc(-c2ccc(-c3ccc(-c4cnc5[nH]c([C@@H]6CC[C@H](C)N6C(=O)[C@@H](NC(=O)OC)C(C)C)nc5c4)cc3)cc2)c[nH]1)C(C)C [Compound 4] | ≤ 5 nM | 0.07 nM | 0.025 nM
COC(=O)N[C@H](C(=O)N1C[C@@H](C)C[C@H]1c1ncc(-c2ccc(-c3ccc(-c4ccc5nc([C@@H]6C[C@H](C)CN6C(=O)[C@@H](NC(=O)OC)C(C)C)oc5c4)cc3)cc2)[nH]1)C(C)C [Compound 1] | ≤ 5 nM | – | –
COC(=O)N[C@H](C(=O)N1C[C@@H](C)C[C@H]1c1cc2cc(-c3ccc(-c4ccc(-c5cnc([C@@H]6C[C@H](C)CN6C(=O)[C@@H](NC(=O)OC)C(C)C)[nH]5)cc4)cc3)ccc2[nH]1)C(C)C [Compound 5] | ≤ 5 nM | – | –
COC(=O)N[C@H](C(=O)N1C(c2nc3cc(-c4ccc(-c5ccc(-c6c[nH]c([C@@H]7CC[C@H](C)N7C(=O)[C@@H](NC(=O)OC)C(C)C)n6)cc5)cc4)cnc3[nH]2)CC[C@@H]1C)C(C)C (stereo partly drawn) [Compound 6] | ≤ 5 nM | – | –
COC(=O)N[C@H](C(=O)N1C[C@@H](C)C[C@H]1c1ncc(-c2ccc(-c3ccc(-c4ccc5sc([C@@H]6C[C@H](C)CN6C(=O)[C@@H](NC(=O)OC)C(C)C)nc5c4)cc3)cc2)[nH]1)C(C)C [Compound 3] | ≤ 5 nM | – | –
COC(=O)N[C@H](C(=O)N1C[C@@H](C)C[C@H]1c1nc(-c2ccc(-c3ccc(-c4cnc5[nH]c([C@@H]6C[C@H](C)CN6C(=O)[C@@H](NC(=O)OC)C(C)C)nc5c4)cc3)cc2)c[nH]1)C(C)C [Compound 16, Methyl N-[(1S)-1-[(2S,4S)-2-[4-[4-[4-[2-[(2S,4S)-1-[(2S)-2-(methoxycarbonylamino)-3-methyl-butanoyl]-4-methyl-pyrrolidin-2-yl]-3H-imidazo[4,5-b]pyridin-6-yl]phenyl]phenyl]-1H-imidazol-2-yl]-4-methyl-pyrrolidine-1-carbonyl]-2-methyl-propyl]carbamate] | ≤ 5 nM | 0.01 nM | 0.01 nM
COC(=O)N[C@H](C(=O)N1C[C@@H](C)C[C@H]1c1cc2ccc(-c3ccc(-c4ccc(-c5cnc([C@@H]6C[C@H](C)CN6C(=O)[C@@H](NC(=O)OC)C(C)C)[nH]5)cc4)cc3)cc2[nH]1)C(C)C [Compound 2] | ≤ 5 nM | – | –
COC(=O)N[C@H](C(=O)N1C[C@@H](C)C[C@H]1c1nc2ccc(-c3cc4sc(-c5c[nH]c([C@@H]6C[C@H](C)CN6C(=O)[C@@H](NC(=O)OC)C(C)C)n5)cc4s3)cn2n1)C(C)C [Compound 15] | ≤ 5 nM | – | –
